Data from patent US10065990B2, “Cyclic peptide compound, and preparation method, pharmaceutical composition and use thereof” (HANGZHOU GUANYU BIO-MEDICAL CO., LTD, priority 2013, dated 2018).
Like-named read-outs stand apart in the source and are kept apart here.

What was measured:
HDAC7 = biological target: T1, HDAC7 (Homo sapiens, UniProt Q8WUI4); assay: HDAC biochemical activity measurement (fluorescent substrate deacetylation);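 note: fluorogenic deacetylation assay using acetyl-lysine substrate at 20 µM, enzyme and compound incubated 30 min at 37 °C, then developer added, fluorescence read at 360/460 nm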; conditions: HDAC7; 37° C. 30 minutes
T1 sequence (Q8WUI4 1-952): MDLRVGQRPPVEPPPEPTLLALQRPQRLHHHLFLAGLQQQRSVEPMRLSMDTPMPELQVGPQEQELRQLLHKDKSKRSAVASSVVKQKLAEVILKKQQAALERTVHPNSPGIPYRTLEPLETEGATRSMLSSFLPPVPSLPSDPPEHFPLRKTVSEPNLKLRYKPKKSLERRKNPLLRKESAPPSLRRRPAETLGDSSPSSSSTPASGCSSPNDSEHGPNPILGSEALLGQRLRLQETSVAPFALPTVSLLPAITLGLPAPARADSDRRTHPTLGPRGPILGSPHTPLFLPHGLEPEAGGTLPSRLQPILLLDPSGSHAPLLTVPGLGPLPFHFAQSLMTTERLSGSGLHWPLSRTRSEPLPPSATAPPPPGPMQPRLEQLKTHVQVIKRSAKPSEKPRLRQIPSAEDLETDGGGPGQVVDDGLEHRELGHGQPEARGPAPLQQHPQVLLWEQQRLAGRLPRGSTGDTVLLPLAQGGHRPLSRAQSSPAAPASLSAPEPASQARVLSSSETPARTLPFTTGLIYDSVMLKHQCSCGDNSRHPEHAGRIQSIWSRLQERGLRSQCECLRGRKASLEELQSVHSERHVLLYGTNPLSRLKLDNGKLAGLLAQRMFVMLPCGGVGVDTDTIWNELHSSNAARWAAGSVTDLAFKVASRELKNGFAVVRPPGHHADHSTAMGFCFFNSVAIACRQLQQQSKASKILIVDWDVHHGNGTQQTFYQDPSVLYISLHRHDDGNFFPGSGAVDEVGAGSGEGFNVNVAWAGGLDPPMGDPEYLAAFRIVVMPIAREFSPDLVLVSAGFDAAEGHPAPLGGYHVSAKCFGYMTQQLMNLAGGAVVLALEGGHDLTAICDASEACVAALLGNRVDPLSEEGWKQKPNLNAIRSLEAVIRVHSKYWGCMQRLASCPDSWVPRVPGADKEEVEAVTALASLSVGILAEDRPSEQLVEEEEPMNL

[1] = tested on: A549 (human lung cancer cells); assay: MTT cancer cell growth inhibition; assay type: cell-based; conditions: MTT, 72 hours incubation, read-out: GI50 A54
Description: (§1) MTT assay principle is yellow MTT can penetrate membrane into the cell, succinic dehydrogenase of the mitochondria in living cells can make exogenous MTT reduction of insoluble in water of blue-violet acicular formazan for crystallization and deposition in the cell, crystallization can be dissolved dimethyl sulfoxide (DMSO) solution, detected its absorbance at 490 nm/570 nm wavelength by enzyme-linked immunosorbent assay, which can reflect the number of cells.
(§2) Using DMEM+10% FBS culture medium or using 1640+10% FBS culture, respectively.
(§3) a) Cells were seeded in 96-well plates with the inoculation of 1500/well, 190 μl/hole, 37° C., 5% of CO2 incubator overnight;
(§4) b) The next day each well was added 10 μl of different drugs. The final concentration of drug was 10^−5˜10^−10M, three parallel holes; 37° C., 5% CO2 culture incubator for 72 hours incubation;
(§5) c) Per well was added 20 μl 5 mg/ml of MTT, 37° C., 5% CO2 culture incubator for 4 hours incubation;
(§6) d) The supernatant was discarded. Each well was added 100 μl of DMSO and oscillation;
(§7) e) 570 nm readings. Calculate cell viability. GI50 calculation based on the results.

[2] = tested on: BGC-823 (human gastric cancer cells); assay: MTT cancer cell growth inhibition; assay type: cell-based; conditions: MTT, 72 hours incubation, read-out: GI50 BG
Description: as §1, §2, §3, §4, §5, §6, §7

[3] = tested on: Bel-7402 (human hepatoma cells); assay: MTT cancer cell growth inhibition; assay type: cell-based; conditions: MTT, 72 hours incubation, Bel-7402 cells, read-out: GI50 Bel-7402
Description: as §1, §2, §3, §4, §5, §6, §7

[4] = tested on: DU145 (human prostate cancer cells); assay: MTT cancer cell growth inhibition; assay type: cell-based; conditions: MTT, 72 hours incubation, read-out: GI50 Du1
Description: as §1, §2, §3, §4, §5, §6, §7

[5] = tested on: H1975 (non-small cell lung adenocarcinoma); assay: MTT cancer cell growth inhibition; assay type: cell-based; conditions: MTT, 72 hours incubation, H1975 cells, read-out: GI50 H1975
Description: as §1, §2, §3, §4, §5, §6, §7

[6] = tested on: HCC827 (human non-small cell lung cancer cells); assay: MTT cancer cell growth inhibition; assay type: cell-based; conditions: MTT, 72 hours incubation, HCC827 cells, read-out: GI50 HCC827
Description: as §1, §2, §3, §4, §5, §6, §7

[7] = tested on: HT1080 (human fibrosarcoma cells); assay: MTT cancer cell growth inhibition; assay type: cell-based; conditions: MTT, 72 hours incubation, read-out: GI50 HT1
Description: as §1, §2, §3, §4, §5, §6, §7

[8] = tested on: Hela (human cervical cancer cells); assay: MTT cancer cell growth inhibition; assay type: cell-based; conditions: MTT, 72 hours incubation, read-out: GI50 Hela
Description: as §1, §2, §3, §4, §5, §6, §7

[9] = tested on: Huh-7 (human hepatoma cells); assay: MTT cancer cell growth inhibition; assay type: cell-based; conditions: MTT, 72 hours incubation, Huh-7 cells, read-out: GI50 Huh-7
Description: as §1, §2, §3, §4, §5, §6, §7

[10] = tested on: K562 (human leukemia cells); assay: MTT cancer cell growth inhibition; assay type: cell-based; conditions: MTT, 72 hours incubation, K562 cells, read-out: GI50 K562
Description: as §1, §2, §3, §4, §5, §6, §7

[11] = tested on: KBM-5 (human chronic myelogenous leukemia); assay: MTT cancer cell growth inhibition; assay type: cell-based; conditions: MTT, 72 hours incubation, KBM-5 cells, read-out: GI50 KBM-5
Description: as §1, §2, §3, §4, §5, §6, §7

[12] = tested on: KBM5-T315I (human chronic myelogenous leukemia); assay: MTT cancer cell growth inhibition; assay type: cell-based; conditions: MTT, 72 hours incubation, KBM5-T315I cells, read-out: GI50 KBM5-T315I
Description: as §1, §2, §3, §4, §5, §6, §7

[13] = tested on: MCF-7 (human breast cancer cells); assay: MTT cancer cell growth inhibition; assay type: cell-based; conditions: 72 hours incubation, read-out: GI50 MCF
Description: as §1, §2, §3, §4, §5, §6, §7

[14] = tested on: MDA-MB-231 (breast cancer cells); assay: MTT cancer cell growth inhibition; assay type: cell-based
Description: as §1, §2, §3, §4, §5, §6, §7

[15] = tested on: MOLT-4 (human acute lymphoblastic leukemia cells); assay: MTT cancer cell growth inhibition; assay type: cell-based; conditions: MTT, 72 hours incubation, read-out: GI50 Mol
Description: as §1, §2, §3, §4, §5, §6, §7

[16] = tested on: N-87 (human gastric cancer cells); assay: MTT cancer cell growth inhibition; assay type: cell-based; conditions: MTT, 72 hours incubation, N-87 cells, read-out: GI50 N-87
Description: as §1, §2, §3, §4, §5, §6, §7

[17] = tested on: PANC-1 (Pac-1, human pancreatic cancer cells); assay: MTT cancer cell growth inhibition; assay type: cell-based; conditions: MTT, 72 hours incubation, read-out: GI50 PAN
Description: as §1, §2, §3, §4, §5, §6, §7

[18] = tested on: SGC-7901 (human gastric cancer cells); assay: MTT cancer cell growth inhibition; assay type: cell-based; conditions: MTT, 72 hours incubation, SGC-7901 cells, read-out: GI50 SGC-7901
Description: as §1, §2, §3, §4, §5, §6, §7

[19] = tested on: U937 (human leukemia cells); assay: MTT cancer cell growth inhibition; assay type: cell-based; conditions: MTT, 72 hours incubation, read-out: GI50 U93
Description: as §1, §2, §3, §4, §5, §6, §7

[20] = tested on: lncap (prostate cancer cells); assay: MTT cancer cell growth inhibition; assay type: cell-based; conditions: MTT, 72 hours incubation, read-out: GI50 lnca
Description: as §1, §2, §3, §4, §5, §6, §7

[21] = Homo sapiens, MDA-MB-231, 72 h, read-out: GI50 MDA-MB-231, MTT, 72 hours incubation, MDA-MB-231 cells

C=C1NC(=O)c2cc(F)cc(n2)CNC(=O)C[C@@H](/C=C/CCS)OC(=O)[C@H](C(C)C)NC1=O [Compound 133]
IC50 HDAC7 (HDAC7): no activity | GI50 [1]: 50 nM | GI50 [2]: 50 nM | GI50 [3]: 32 nM | GI50 [4]: 70 nM | GI50 [5]: 31 nM | GI50 [6]: 36 nM | GI50 [7]: 80 nM | GI50 [8]: 20 nM | GI50 [9]: 33 nM | GI50 [10]: 16 nM | GI50 [11]: 36 nM | GI50 [12]: 16 nM | GI50 [13]: 70 nM | GI50 ([14]; read-out: GI50 MDA-MB-231, MTT, 72 hours incubation, MDA-MB-231 cells): 35 nM | GI50 [15]: 80 nM | GI50 [16]: 66 nM | GI50 [17]: 50 nM | GI50 [18]: 35 nM | GI50 [19]: 50 nM | GI50 [20]: 80 nM

C/C=C1\NC(=O)c2ccc(SC)c(n2)CNC(=O)C[C@@H](/C=C/CCSC(C)=O)OC(=O)[C@H](Cc2ccc(O)cc2)NC1=O [Compound 203]
IC50 HDAC7 (HDAC7): no activity | GI50 ([1]; Homo sapiens, A549, 72 h, A549 cells): 30 nM | GI50 ([2]; Homo sapiens, BGC-823, 72 h, BGC-823 cells): 80 nM | GI50 ([3]; Homo sapiens, Bel-7402, 72 h): 23 nM | GI50 ([4]; Homo sapiens, DU-145, 72 h, DU145 cells): 40 nM | GI50 ([5]; Homo sapiens, NCI-H1975, 72 h): 65 nM | GI50 ([6]; Homo sapiens, HCC827, 72 h): 23 nM | GI50 ([7]; Homo sapiens, HT-1080, 72 h, HT1080 cells): 60 nM | GI50 ([8]; Homo sapiens, HeLa, 72 h, Hela cells): 30 nM | GI50 ([9]; Homo sapiens, Huh-7, 72 h): 22 nM | GI50 ([10]; Homo sapiens, K562, 72 h): 35 nM | GI50 ([11]; Homo sapiens, KBM5, 72 h): 53 nM | GI50 ([12]; Homo sapiens, 72 h): 26 nM | GI50 ([13]; Homo sapiens, MCF7, 72 h, MCF-7 cells): 40 nM | GI50 [14, 21]: 73 nM | GI50 ([15]; Homo sapiens, MOLT-4, 72 h, MOLT-4 cells): 30 nM | GI50 ([16]; Homo sapiens, 72 h): 77 nM | GI50 ([17]; Homo sapiens, PANC-1, 72 h, PANC-1 cells): 30 nM | GI50 ([18]; Homo sapiens, SGC-7901, 72 h): 43 nM | GI50 ([19]; Homo sapiens, U-937, 72 h, U937 cells): 20 nM | GI50 ([20]; Homo sapiens, LNCaP, 72 h, lncap cells): 30 nM

C/C=C1\NC(=O)c2ccc(F)c(n2)CNC(=O)C[C@@H](/C=C/CCS)OC(=O)[C@H](Cc2ccc(O)cc2)NC1=O [Compound 130]
IC50 HDAC7 (HDAC7): no activity | GI50 ([1]; Homo sapiens, A549, 72 h): 70 nM | GI50 ([2]; Homo sapiens, BGC-823, 72 h): 50 nM | GI50 ([3]; Homo sapiens, Bel-7402, 72 h): 32 nM | GI50 ([4]; Homo sapiens, DU-145, 72 h): 30 nM | GI50 ([5]; Homo sapiens, NCI-H1975, 72 h): 42 nM | GI50 ([6]; Homo sapiens, HCC827, 72 h): 54 nM | GI50 ([7]; Homo sapiens, HT-1080, 72 h): 100 nM | GI50 ([8]; Homo sapiens, HeLa, 72 h): 130 nM | GI50 ([9]; Homo sapiens, Huh-7, 72 h): 41 nM | GI50 ([10]; Homo sapiens, K562, 72 h): 28 nM | GI50 ([11]; Homo sapiens, KBM5, 72 h): 23 nM | GI50 ([12]; Homo sapiens, 72 h): 11 nM | GI50 ([13]; Homo sapiens, MCF7, 72 h): 70 nM | GI50 [14, 21]: 38 nM | GI50 ([15]; Homo sapiens, MOLT-4, 72 h): 30 nM | GI50 ([16]; Homo sapiens, 72 h): 58 nM | GI50 ([17]; Homo sapiens, PANC-1, 72 h): 40 nM | GI50 ([18]; Homo sapiens, SGC-7901, 72 h): 42 nM | GI50 ([19]; Homo sapiens, U-937, 72 h): 30 nM | GI50 ([20]; Homo sapiens, LNCaP, 72 h): 20 nM
